Results from the supplement of paper PMC11061612.

Experiments:
A204 (Rhabdomyosarcoma) = experiment: Bliss excess, mean over the matrix (fraction); higher = more synergy
Outline: (§1)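 Bliss excess equals the observed combination effect minus the expected value EA + EB − EA·EB, where EA and EB are the effects of each agent alone. Combination Emax is the second-highest inhibition within the matrix. Inhibition was scaled from CellTiter-Glo 2.0 luminescence, with 0 set by vehicle wells and 1 by blank wells, after 72 hours of two-drug dosing of cells plated in 1536-well plates.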

[1] = tested on: DU-4475 (Breast Carcinoma); experiment: as above
Outline: as §1

[2] = tested on: GA-10 (Burkitt's Lymphoma); experiment: as above
Outline: as §1

[3] = tested on: HCC1395 (Breast Carcinoma); experiment: as above
Outline: as §1

[4] = tested on: JHH-2 (Hepatocellular Carcinoma); experiment: as above
Outline: as §1

[5] = tested on: JVM-2 (B-Cell Non-Hodgkin's Lymphoma); experiment: as above
Outline: as §1

[6] = tested on: Jurkat (T-Lymphoblastic Leukemia); experiment: as above
Outline: as §1

[7] = tested on: MHH-ES-1 (Ewing's Sarcoma); experiment: as above
Outline: as §1

[8] = tested on: TE-10 (Esophageal Squamous Cell Carcinoma); experiment: as above
Outline: as §1

[9] = tested on: UACC-812 (Breast Carcinoma); experiment: as above
Outline: as §1

WM1552C (Melanoma) = experiment: as above
Outline: as §1

[10] = tested on: TE-10 (Esophageal Squamous Cell Carcinoma); experiment: combination Emax (second highest fraction inhibited in the dose matrix, 72 h); higher = more inhibition; extreme values may be limits of the assay
Outline: as §1

MKN1 (Gastric Carcinoma) [11] = experiment: Bliss excess, mean over the matrix (fraction); higher = more synergy
Outline: as §1

[12] = tested on: NCI-H841 (Small Cell Lung Carcinoma); experiment: as above
Outline: as §1

MKN1 (Gastric Carcinoma) [13] = experiment: combination Emax (second highest fraction inhibited in the dose matrix, 72 h); higher = more inhibition; extreme values may be limits of the assay
Outline: as §1

[14] = tested on: NCI-H841 (Small Cell Lung Carcinoma); experiment: as above
Outline: as §1

CC1(C)CCC(CN2CCN(c3ccc(C(=O)NS(=O)(=O)c4ccc(NCC5CCOCC5)c([N+](=O)[O-])c4)c(Oc4cnc5[nH]ccc5c4)c3)CC2)=C(c2ccc(Cl)cc2)C1 [Venetoclax] + C[C@@H](Nc1cc(F)cc(F)c1)c1cc(C(=O)N(C)C)cc2c(=O)cc(N3CCOCC3)oc12 [AZD8186] (first compound max 1 µM, 7x7, partner max 3 µM)
Bliss excess (A204 (Rhabdomyosarcoma)): -0.0152
Bliss excess [1]: -0.0202
Bliss excess [2]: -0.0088
Bliss excess [3]: 0.0107
Bliss excess [4]: 0.0003
Bliss excess [5]: 0.0354
Bliss excess [6]: 0.0084
Bliss excess [7]: -0.0248
Bliss excess [8]: -0.0428
Bliss excess [9]: -0.0319
Bliss excess (WM1552C (Melanoma)): -0.0157
combination Emax [10]: 0.373

CC1(C)CCC(CN2CCN(c3ccc(C(=O)NS(=O)(=O)c4ccc(NCC5CCOCC5)c([N+](=O)[O-])c4)c(Oc4cnc5[nH]ccc5c4)c3)CC2)=C(c2ccc(Cl)cc2)C1 [Venetoclax] + C[C@@H]1COCCN1C2=NC(=NC(=C2)C3(CC3)[S@](=N)(=O)C)C4=C5C=CNC5=NC=C4 [AZD6738] (first compound max 1 µM, 7x7, partner max 10 µM)
Bliss excess (A204 (Rhabdomyosarcoma)): -0.0355
Bliss excess [1]: 0.0062
Bliss excess [2]: -0.0281
Bliss excess [3]: -0.0671
Bliss excess [4]: -0.019
Bliss excess [5]: -0.0035
Bliss excess [6]: 0.0361
Bliss excess [7]: 0.0077
Bliss excess [8]: -0.0361
Bliss excess [9]: 0.0003
Bliss excess (WM1552C (Melanoma)): -0.0603
combination Emax [10]: 0.827

COc1nnc2ccc(N3CCC(c4ccc(OCCN5CCN(C)C(=O)[C@H]5C)cc4)CC3)nn12 [AZD5153] + Cn1cnc2c(F)c(Nc3ccc(Br)cc3Cl)c(C(=O)NOCCO)cc21 [Selumetinib] (first compound max 1 µM, 7x7, partner max 10 µM)
Bliss excess (A204 (Rhabdomyosarcoma)): -0.0838
Bliss excess [1]: 0.0219
Bliss excess [2]: -0.0813
Bliss excess [3]: -0.024
Bliss excess [4]: 0.0024
Bliss excess [5]: 0.0655
Bliss excess [6]: -0.0326
Bliss excess [7]: -0.0114
Bliss excess (MKN1 (Gastric Carcinoma) [11]): -0.0081
Bliss excess [12]: -0.0121
Bliss excess [9]: 0.0089
Bliss excess (WM1552C (Melanoma)): -0.063
combination Emax (MKN1 (Gastric Carcinoma) [13]): 0.619
combination Emax [14]: 0.328

COc1nnc2ccc(N3CCC(c4ccc(OCCN5CCN(C)C(=O)[C@H]5C)cc4)CC3)nn12 [AZD5153] + CC1(C)CCC(CN2CCN(c3ccc(C(=O)NS(=O)(=O)c4ccc(NCC5CCOCC5)c([N+](=O)[O-])c4)c(Oc4cnc5[nH]ccc5c4)c3)CC2)=C(c2ccc(Cl)cc2)C1 [Venetoclax] (first compound max 1 µM, 7x7, partner max 1 µM)
Bliss excess (A204 (Rhabdomyosarcoma)): -0.0383
Bliss excess [1]: 0.0181
Bliss excess [2]: -0.0497
Bliss excess [3]: -0.0241
Bliss excess [4]: -0.0068
Bliss excess [5]: -0.0081
Bliss excess [6]: -0.0444
Bliss excess [7]: -0.046
Bliss excess (MKN1 (Gastric Carcinoma) [11]): -0.0062
Bliss excess [12]: -0.0317
Bliss excess [9]: -0.0947
Bliss excess (WM1552C (Melanoma)): -0.0691
combination Emax (MKN1 (Gastric Carcinoma) [13]): 0.57
combination Emax [14]: 0.317

CN(C)CCCOc1ccc(-c2ccc3ncc4c(c3c2)n(C2CCOCC2)c(=O)n4C)cn1 [AZD0156] + O=C(c1cc(Cc2n[nH]c(=O)c3ccccc23)ccc1F)N1CCN(C(=O)C2CC2)CC1 [Olaparib] (first compound max 3 µM, partner max 3 µM)
Bliss excess (A204 (Rhabdomyosarcoma)): -0.0255
Bliss excess [1]: 0.117
Bliss excess [2]: 0.131
Bliss excess [3]: 0.0515
Bliss excess [4]: 0.0203
Bliss excess [5]: 0.0457
Bliss excess [6]: 0.174
Bliss excess [7]: 0.148
Bliss excess (MKN1 (Gastric Carcinoma) [11]): 0.0242
Bliss excess [12]: -0.0483
Bliss excess [9]: -0.113
Bliss excess (WM1552C (Melanoma)): 0.0213
combination Emax (MKN1 (Gastric Carcinoma) [13]): 0.307
combination Emax [14]: 0.208

Cn1cnc2c(F)c(Nc3ccc(Br)cc3Cl)c(C(=O)NOCCO)cc21 [Selumetinib] + CCN(CCO)CCCOc1ccc2c(Nc3cc(CC(=O)Nc4cccc(F)c4)[nH]n3)ncnc2c1 [AZD2811] (first compound max 10 µM, 7x7, partner max 1 µM)
Bliss excess (A204 (Rhabdomyosarcoma)): -0.0772
Bliss excess [1]: 0.0351
Bliss excess [2]: -0.0559
Bliss excess [3]: -0.008
Bliss excess [4]: -0.0193
Bliss excess [5]: 0.0315
Bliss excess [6]: -0.0216
Bliss excess [7]: -0.0268
Bliss excess (MKN1 (Gastric Carcinoma) [11]): 0.002
Bliss excess [12]: -0.0341
Bliss excess [9]: -0.049
Bliss excess (WM1552C (Melanoma)): -0.0694
combination Emax (MKN1 (Gastric Carcinoma) [13]): 0.538
combination Emax [14]: 0.332

Cc1c2c(nn1C)CSCc1cc(n(C)n1)CSc1cc(c3ccccc3c1)OCCCc1c(C(=O)O)n(C)c3c-2c(Cl)ccc13 [AZD5991] + CN(C)CCCOc1ccc(-c2ccc3ncc4c(c3c2)n(C2CCOCC2)c(=O)n4C)cn1 [AZD0156] (first compound max 1 µM, 7x7, partner max 1 µM)
Bliss excess (A204 (Rhabdomyosarcoma)): 0.0048
Bliss excess [1]: -0.0262
Bliss excess [2]: -0.0564
Bliss excess [4]: 0.0012
Bliss excess [5]: -0.0266
Bliss excess [6]: -0.0219
Bliss excess [7]: -0.0112
Bliss excess [8]: -0.055
Bliss excess [9]: 0.0465
Bliss excess (WM1552C (Melanoma)): -0.0444
combination Emax [10]: 0.84
